Where no end group is shown, it is not given here.
Legend:
[1] = system: insulitis; test: Suppression of insulitis in NOD mice by oral administration; type: in vivo; conditions: fed orally; for Insulitis Score: amount (mg) per Table 5, sacrificed at ten weeks of age
Experimental: NOD mice (Taconic Labs) were fed one mg of glucagon, or one mg of porcine insulin (both commercially purchased) or equal molar amounts of insulin A-chain, B-chain and B-chain peptides described below (all insulin fragments having been synthesized) twice weekly for five weeks and sacrificed at ten weeks of age.
Control animals were fed a non-pancreatic (i.e., unrelated) peptide, GAP. Insulitis was measured as a semiquantitative insulitis score according to the method described in Zhang, Z. J., PNAS(USA), 88:10252-10256, 1991.
The insulin B-chain peptides corresponded to amino acid residues 1-12 (B1-12), 10-22 (B10-22), 11-30 (B11-30) and 23-30 (B23-30). All animals were fed 10 times over three weeks.

[2] = system: OVA (responder) line; test: Transwell triggering of suppression by MBP peptides; type: cell-based, rats; conditions: peptide added to modulator well with spleen cells of MBP-fed animals; FIG. 11
Description: Transwell Cultures. A dual chamber transwell culture system (Costar, Cambridge, Mass.), which is 24.5 mm in diameter and consists of two compartments separated by a semi-permeable polycarbonate membrane, with a pore size of 0.4 μm, was used. The two chambers are 1 mm apart, allowing cells to be coin-cubated in close proximity without direct cell-to-cell contact. To measure in vitro suppression of proliferative responses in transwell cultures, 5×10^4 MBP- or OVA-specific line cells, raised and maintained as previously described (Ben-Nun, A. et al., Eur. J. Immunol. 11:195, 1981), were cultured with 10^6 irradiated (2,500 rad) thymocytes, in 600 μl of proliferation media in the lower well. Spleen cells from orally tolerized rats or controls (fed BSA) were added to the upper well (5×10^5 cells in 200 μl). Spleen cells were removed 7-14 days after the last feeding, and a single cell suspension was prepared by pressing the spleens through a stainless steel mesh. MBP and OVA (50 μg/ml) were added in a volume of 20 μl. […] In some experiments, modulator cells were added in the lower well together with responder cells, and in these instances modulator cells were irradiated (1,250 rad) immediately before being placed in culture. Proliferation media consisted of RPMI 1640 (Gibco Laboratories, Grand Island, N.Y.) supplemented with […] 2-mercaptoethanol, 1% sodium pyruvate, 1% penicillin and streptomycin, 1% glutamine, 1% HEPES buffer, 1% nonessential amino acids, and 1% autologous serum. Each transwell was performed in quadruplicate. The transwells were incubated at 37° C. in a humidified 6% CO2 and 94% air atmosphere for 72 hours. After 54 hours of culture, each lower well was pulsed with 4 μCi of [^3H]thymidine and at 72 hours split and reseeded to three wells in a round-bottomed 96-well plate (Costar) for harvesting onto fiberglass filters and counting using standard liquid scintillation techniques. Percent suppression =100×(1−Δ A cpm responders cultured with modulators/Δ cpm of responders).
The Transwell System of Example 2 above was used to identify the epitopes present on guinea pig MBP which induce the release of TGF-β from suppressor T-cells.
Peptides corresponding to guinea pig MBP residue nos.

[3] = system: EAE; test: EAE induced by guinea pig MBP 71-90, feeding of MBP peptides; type: in vivo, Lewis rats; conditions: fed; FIG. 14
Experimental: The effects of feeding various peptides to Lewis rats induced for EAE by guinea pig MBP residue nos. 71-90 (the major immunodominant epitope of guinea pig MBP as shown in Example 3 above) were also studied.
EAE was induced by immunizing with 0.25 mg of guinea pig MBP amino acid residue nos 71-90 in Complete Freund's Adjuvant and the effect of feeding various guinea pig MBP peptides on EAE was examined.

[4] = system: DTH responses; test: DTH responses in animals fed MBP or MBP peptides; type: in vivo, Lewis rats; conditions: FIG. 15
Description: Guinea pig MBP peptide 131-150 was ineffective in this case. Peptides were also fed with STI which prevents their breakdown by gastric juices and enhances their biological effect. DTH responses to whole MBP were suppressed by feeding MBP or any one of the MBP-peptides 21-40, or 71-90.

[5] = system: EAE; test: I.V. tolerization with MBP and MBP peptides in EAE induced with whole guinea pig MBP; type: in vivo, SJL/J mice; conditions: days 8 and 9 post immunization, FIG. 16
Description: FIG. 16 is a bar graph showing the effect of intravenous tolerization with MBP and disease inducing and non-inducing fragments thereof on induced EAE expression in SJL/J mice.
Finally, the suppression of EAE by I.V. tolerization with MBP and MBP peptides prior to disease expression (on days 8 and 9 post immunization) was examined.

[6] = system: EAE; test: EAE induced with PLP peptide 140-160, oral vs. I.V. administration; type: in vivo, SJL/J mice; conditions: 0.25 mg every other day
Experimental: 2. Fed Mouse MBP (0.25 mg)
3. Fed Bovine PLP (0.25 mg)
4. Inject I.V. Histone (0.25 mg)
5. Inject I.V. MBP (0.25 mg)
6. Inject I.V. PLP (0.25 mg)
Each group was treated every other day for 7 days. In the intravenous group, the material was injected into the eye plexus. The PLP peptide used was the disease inducing fragment 140-160 of bovine PLP. This peptide has the amino acid sequence H2N-[…]-CO2H (SEQ. ID NO: 13), representing the foregoing amino acid residues.

## A-Chain: insulin A-chain, synthesized
[1]
  suppression of insulitis (in words): suppressed insulitis
  Insulitis Score: 1.88

## B1-12: insulin B-chain peptide, amino acid residues 1-12 (FVNQHLCGSHLV; ends and bridges not checked; UniProt P01308 25-36, looked up, fragment)
[1]
  suppression of insulitis (in words): suppressed insulitis
  Insulitis Score: 1.76

## B10-22: insulin B-chain peptide, amino acid residues 10-22 (HLVEALYLVCGER; ends and bridges not checked; UniProt P01308 34-46, looked up, fragment)
[1]
  suppression of insulitis (in words): suppressed insulitis
  Insulitis Score: 1.71

## B11-30: insulin B-chain peptide, amino acid residues 11-30 (LVEALYLVCGERGFFYTPKT; ends and bridges not checked; UniProt P01308 35-54, looked up, fragment)
[1]
  suppression of insulitis (in words): suppressed insulitis
  Insulitis Score: 1.44

## B23-30: insulin B-chain peptide, amino acid residues 23-30 (GFFYTPKT; Insulin B chain; UniProt P01308 47-54, looked up, fragment)
[1]
  suppression of insulitis (in words): did not
  Insulitis Score: 2.22

## B-Chain: insulin B-chain, synthesized
[1]
  suppression of insulitis (in words): suppressed insulitis
  Insulitis Score: 1.32

## glucagon [reference compound]
[1]
  suppression of insulitis (in words): effective in suppressing insulitis
  Insulitis Score: 1.81

## guinea pig MBP 21-40: peptide corresponding to guinea pig MBP amino acid residues 21-40 (MDHARHGFLPRHRDTGILDS; UniProt P25188 21-40, looked up, fragment)
[2]
  triggering suppression of proliferation in the transwell system: capable of triggering suppression of proliferation
[3]
  down-regulation of EAE induced by guinea pig MBP 71-90: equally effective in down-regulating EAE
[4]
  DTH responses to guinea pig MBP peptide 71-90: not affected
  DTH responses to whole MBP: suppressed
[5]
  suppression of EAE induced with whole guinea pig MBP: ineffective in suppressing EAE

## guinea pig MBP 51-70: peptide corresponding to guinea pig MBP amino acid residues 51-70 (APKRGSGKDSHHAARTTHYG; UniProt P25188 51-70, looked up, fragment)
[2]
  triggering suppression of proliferation in the transwell system: capable of triggering suppression of proliferation

## guinea pig MBP 101-120: peptide corresponding to guinea pig MBP amino acid residues 101-120 (SQGKGRGLSLSRFSWGAEGQ; UniProt P25188 101-120, looked up, fragment)
[2]
  triggering suppression of proliferation in the transwell system: capable of triggering suppression of proliferation

## guinea pig MBP 131-150: Guinea pig MBP peptide 131-150 (DYKSKGFKGAHDAQGTLSKI; UniProt P25188 131-150, looked up, fragment)
[3]
  down-regulation of EAE induced by guinea pig MBP 71-90: ineffective
[5]
  suppression of EAE induced with whole guinea pig MBP: ineffective in suppressing EAE

B1: bovine PLP: Bovine proteolipid protein (protein, listed as Bos taurus)
chain: GLLECCARCLVGAPFASLVATGLCFFGVALFCGCGHEALTGTEKLIETYFSKNYQDYEYLINVIHAFQYVIYGTASFFFLYGALLLAYGFYTTGAVRQIFGDYKTTICGKGLSATVTGGQKGRGSRGQHQAHSLERVCHCLGKWLGHPDKFVGITYALTVVWLLVFACSAVPVYIYFNTWTTCQSIAAPSKTSASIGTLCADARMYGVLPWNAFPGKVCGSNLLSICKTAEFQMTFHLFIAAFVGAAATLVSLVTFMIAATYNFAVLKLMGRGTKF
[6]; administered intravenously, FIG. 13
  suppression of PLP-peptide-induced EAE: effective in suppressing EAE
[6]; orally administered, FIG. 12
  suppression of PLP-peptide-induced EAE: equally effective in down-regulating PLP-peptide-induced EAE

B2: mouse MBP: Mouse myelin basic protein (protein, UniProt P04370 1-250, looked up)
Myelin basic protein: MGNHSGKRELSAEKASKDGEIHRGEAGKKRSVGKLSQTASEDSDVFGEADAIQNNGTSAEDTAVTDSKHTADPKNNWQGAHPADPGNRPHLIRLFSRDAPGREDNTFKDRPSESDELQTIQEDPTAASGGLDVMASQKRPSQRSKYLATASTMDHARHGFLPRHRDTGILDSIGRFFSGDRGAPKRGSGKDSHTRTTHYGSLPQKSQHGRTQDENPVVHFFKNIVTPRTPPPSQGKGGRDSRSGSPMARR
[6]; orally administered, FIG. 12
  suppression of PLP-peptide-induced EAE: equally effective in down-regulating PLP-peptide-induced EAE
